In ChEMBL document CHEMBL5375954, “Discovery and Evaluation of C6-Substituted Pyrazolopyrimidine-Based Bisphosphonate Inhibitors of the Human Geranylgeranyl Pyrophosphate Synthase and Evaluation of Their Antitumor Efficacy in Multiple Myeloma, Pancreatic Ductal Adenocarcinoma, and Colorectal Cancer” (J Med Chem, 2023):
Active and inactive are the calls of the source. The calls are words filed in the database; no cut-off is given here.

What was measured:
HCT-116 [1] = experiment: Induction of apoptosis in human HCT-116 cells assessed as necrotic cells at 1 uM incubated for 72 hrs in presence of geranylgeraniol by APC-Annexin-V/7-AAD staining based flow cytometry (reference value: 2.99%); type: functional
[2] = Metabolic stability in Sprague-Dawley rat liver microsomes assessed as compound remaining incubated for 45 mins in absence of NADPH by LC-MS/MS analysis; type: ADME, Microsome; conditions: 0.75 h
[3] = Toxicity in NSG mouse xenografted with human RPMI-8226 cells assessed as reduction in body weight at 3 mg/kg, ip administered 3 times a week for 26 days and measured daily; type: organism-based; conditions: in vivo, time 26 day
[4] = Hepatotoxicity in male NSG mouse xenografted with human RPMI-8226 cells assessed as foci of necrosis at 3 mg/kg, ip administered 3 times a week for 26 days and measured 48 hrs post last dose by H and E staining based assay; type: toxicity, organism-based; conditions: in vivo, 672 h, time 28 day
RPMI-8226 = experiment: Antiproliferative activity against human RPMI-8226 cells harboring KRAS G12A mutant at 0.1 to 10000 nM incubated for 72 hrs by MTS assay; type: functional, cell-based; conditions: dose 0.1-10000 nM
[5] = Toxicity in NSG mouse xenografted with human MIA PaCa-2 cells assessed as inflammation at site of injection at 3 mg/kg, ip administered 3 times a week for 26 days and measured daily; type: organism-based; conditions: in vivo, time 26 day
[6] = Toxicity in NSG mouse xenografted with human MIA PaCa-2 cells assessed as morbidity at 3 mg/kg, ip administered 3 times a week for 26 days and measured daily; type: organism-based; conditions: in vivo, time 26 day
[7] = Hepatotoxicity in male NSG mouse xenografted with human RPMI-8226 cells assessed as serum AST level at 3 mg/kg, ip administered 3 times a week for 26 days and measured 48 hrs post last dose (reference value: 76 to 78 IU/L); type: toxicity, organism-based; conditions: in vivo, 672 h, time 28 day
[8] = Hepatotoxicity in female NSG mouse xenografted with human RPMI-8226 cells assessed as vasculitis or perivasculitis at 3 mg/kg, ip administered 3 times a week for 26 days and measured 48 hrs post last dose by H and E staining based assay; type: toxicity, organism-based; conditions: in vivo, 672 h, time 28 day
MIA PaCa-2 [9] = experiment: Induction of apoptosis in human MIA PaCa-2 cells assessed as early apoptotic cells at 1 uM incubated for 72 hrs by APC-Annexin-V/7-AAD staining based flow cytometry (reference value: 1.26%); type: functional
[10] = Metabolic stability in Sprague-Dawley rat liver microsomes assessed as compound remaining incubated for 45 mins in presence of NADPH by LC-MS/MS analysis; type: ADME, Microsome; conditions: 0.75 h
HCT-116 [11] = experiment: Induction of apoptosis in human HCT-116 cells assessed as late apoptotic cells at 1 uM incubated for 72 hrs in presence of geranylgeraniol by APC-Annexin-V/7-AAD staining based flow cytometry (reference value: 0%); type: functional
[12] = Metabolic stability in CD-1 mouse liver microsomes assessed as compound remaining incubated for 45 mins in presence of NADPH by LC-MS/MS analysis; type: ADME, Microsome; conditions: 0.75 h
[13] = Metabolic stability in human liver microsomes assessed as compound remaining incubated for 45 mins in absence of NADPH by LC-MS/MS analysis; type: ADME, Microsome; conditions: 0.75 h
MIA PaCa-2 [14] = experiment: Induction of apoptosis in human MIA PaCa-2 cells at 1 uM incubated for 72 hrs in presence of geranylgeraniol by APC-Annexin-V/7-AAD staining based flow cytometry; type: functional, cell-based
[15] = Metabolic stability in CD-1 mouse liver microsomes assessed as compound remaining incubated for 45 mins in absence of NADPH by LC-MS/MS analysis; type: ADME, Microsome; conditions: 0.75 h
Cytochrome P450 2D6 = Cytochrome P450 2D6 (Homo sapiens, UniProt P10635); experiment: Inhibition of CYP2D6 (unknown origin); type: ADME
[16] = Volume of distribution in Sprague-Dawley rat at 3 mg/kg, iv measured for 24 hrs by LC-MS/MS analysis; type: ADME, organism-based; conditions: in vivo
[17] = Toxicity in NSG mouse xenografted with human MIA PaCa-2 cells assessed as reduction in mobility at 3 mg/kg, ip administered 3 times a week for 26 days and measured daily; type: organism-based; conditions: in vivo, time 26 day
[18] = Metabolic stability in human liver microsomes assessed as compound remaining incubated for 45 mins in presence of NADPH by LC-MS/MS analysis; type: ADME, Microsome; conditions: 0.75 h
Cytochrome P450 2C9 = Cytochrome P450 2C9 (Homo sapiens, UniProt P11712); experiment: Inhibition of CYP2C9 (unknown origin); type: ADME
[19] = Selectivity index, ratio of EC50 for human MIA PaCa-2 cells to EC50 for human RPMI-8226 cells; type: functional
HCT-116 [20] = experiment: Induction of apoptosis in human HCT-116 cells assessed as live cells at 1 uM incubated for 72 hrs in presence of geranylgeraniol by APC-Annexin-V/7-AAD staining based flow cytometry (reference value: 95.3%); type: functional

Cytochrome P450 2C9, sequence (P11712 whole entry): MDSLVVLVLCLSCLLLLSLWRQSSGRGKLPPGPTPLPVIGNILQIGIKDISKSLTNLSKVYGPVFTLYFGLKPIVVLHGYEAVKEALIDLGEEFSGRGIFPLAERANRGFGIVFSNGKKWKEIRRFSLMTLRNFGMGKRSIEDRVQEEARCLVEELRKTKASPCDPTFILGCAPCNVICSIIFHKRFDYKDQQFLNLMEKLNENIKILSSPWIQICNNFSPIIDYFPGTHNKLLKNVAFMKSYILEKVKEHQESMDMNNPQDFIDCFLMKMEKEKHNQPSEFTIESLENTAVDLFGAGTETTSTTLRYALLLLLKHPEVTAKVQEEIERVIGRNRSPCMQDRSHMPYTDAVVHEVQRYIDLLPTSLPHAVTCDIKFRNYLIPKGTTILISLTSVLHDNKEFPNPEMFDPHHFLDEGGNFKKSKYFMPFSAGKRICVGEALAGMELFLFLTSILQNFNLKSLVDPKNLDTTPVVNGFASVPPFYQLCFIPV
Cytochrome P450 2D6, sequence (P10635 whole entry): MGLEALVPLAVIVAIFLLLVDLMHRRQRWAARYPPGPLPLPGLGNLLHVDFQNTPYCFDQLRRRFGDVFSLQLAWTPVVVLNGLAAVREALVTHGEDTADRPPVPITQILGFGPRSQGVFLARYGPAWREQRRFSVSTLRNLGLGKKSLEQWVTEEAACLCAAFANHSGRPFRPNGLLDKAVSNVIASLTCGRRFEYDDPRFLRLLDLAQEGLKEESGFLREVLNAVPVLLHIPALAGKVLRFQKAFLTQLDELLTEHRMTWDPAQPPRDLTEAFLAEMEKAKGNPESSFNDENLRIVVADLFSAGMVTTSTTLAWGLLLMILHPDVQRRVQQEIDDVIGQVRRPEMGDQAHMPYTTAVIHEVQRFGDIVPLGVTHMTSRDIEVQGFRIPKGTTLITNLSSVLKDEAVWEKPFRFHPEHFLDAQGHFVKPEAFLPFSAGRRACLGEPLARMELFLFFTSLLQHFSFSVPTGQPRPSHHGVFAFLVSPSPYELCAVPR

## Cn1ncc2c(NC(P(=O)(O)O)P(=O)(O)O)nc(-c3cccc(C(=O)Nc4ccc(C(F)(F)F)cc4)c3)nc21
HCT-116 [1]
  Activity: 2.55%
[2]
  Stability: 99.3%
[3]
  Activity: Non-Toxic
[4]
  Activity: Non-Toxic
RPMI-8226
  Activity: Active
[5]
  Activity: Non-Toxic
[6]
  Activity: Non-Toxic
[7]
  Activity: 96 IU/L
[8]
  Activity: Non-Toxic
MIA PaCa-2 [9]
  Activity: 13.5%
[10]
  Stability: 89.7%
HCT-116 [11]
  Activity: 2.17%
[12]
  Stability: 103%
[13]
  Stability: 100%
MIA PaCa-2 [14]
  Activity: inactive
[15]
  Stability: 121%
Cytochrome P450 2D6
  IC50: > 40 µM
[16]
  Vd: 0.055 L/kg
[17]
  Activity: Non-Toxic
[18]
  Stability: 107%
Cytochrome P450 2C9
  IC50: > 40 µM
[19]
  Ratio EC50: ~10
HCT-116 [20]
  Activity: 93.2%
